Common to all, as to test: growth of human tumour cells (NCI), 48 h
For test [1], the system named is SF-268 CNS.
Test [2] concerns OVCAR-3 ovarian.
The subject of test [3] is OVCAR-4 ovarian.
Test [4] has as its system SK-MEL-2 melanoma.
Test [5] relates to DU-145 prostate.
In test [6] the test system is CAKI-1 renal.
For test [7], the system named is SNB-19 CNS.
Test [8] deals with LOX IMVI melanoma.
For test [9], the system named is SF-295 CNS.
For test [10], the system named is PC-3 prostate.

The structures appear in SMILES notation.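 Briefly, cells in 96-well plates were exposed to five compound concentrations for 48 h, and endpoints were estimated by linear interpolation. GI50 marks 50% less growth. TGI: total growth inhibition.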

Turning to `Clc1ccc2c(NCCN3CCN(c4ccnc(N5CCCC5)n4)CC3)ccnc2c1`, the GI50 was 2.73 µM in test [1]; 5.3 µM in test [2]; 3.87 µM in test [3]; 2.61 µM in [4]; 5.71 µM in [5]; 2.69 µM in test [6]. Also, the GI50 is 7.06 µM in [7], 1.72 µM in [8], 2.37 µM in [9] and 5.97 µM in [10]. The TGI in test [1] was determined as 11.5 µM; in test [2] it was 21.2 µM; in test [3], 28.2 µM; in test [4], 6.77 µM; in test [5], 20.3 µM; in test [6] it was 10.3 µM. The TGI in [7] is 28.7 µM; in test [8], 3.55 µM; in [9] it was 5.44 µM; in test [10], 20.8 µM.

Regarding `c1cc(-c2cnn3nc(N4CCOCC4)ccc23)nc(NC2CC2)n1`, the GI50 in test [1] was 8.14 µM; in test [2], 8.17 µM; in [3] it was 14.9 µM; in test [4], 7.82 µM; in test [5] it was 8.66 µM; in test [6], 7.21 µM. In addition, the GI50 in test [7] is 10.6 µM; in test [8], 6.23 µM; in [9], 8.72 µM; in test [10], 7.87 µM. Also, the TGI is 24.6 µM in test [1]; above 25 µM in [2]; above 25 µM in test [3]; 21.6 µM in test [4]; above 25 µM in [5]; above 25 µM in test [6]. In addition, the TGI in [7], in test [8], in test [9] and in [10] was above 25 µM in each case.

As to `Cc1ccc(C(=O)Nc2ccccc2C(=O)N/N=C(\c2ccccc2)c2ccccn2)cc1`, the GI50 in test [1] is 0.274 µM; in test [2], 0.211 µM; in [3], 0.157 µM; in test [5], 0.434 µM; in [6], 0.324 µM; in [7], 0.554 µM. Moreover, the GI50 is 0.302 µM in test [8], 0.377 µM in [9] and 1.1 µM in test [10]. The TGI in [1], in test [2], in [3], in test [4], in [5] and in test [6] was above 100 µM throughout. The TGI in test [7], in [8], in test [9] and in test [10] was above 100 µM each time.

In the case of `CC1(C)CC(O)CCCCCCOc2c(CN)cccc2NC(=O)c2nc(cnc2N)-c2ccc(cc2)S1(=O)=O` (stereo unspecified), the GI50 in test [1] was 1.27 µM; in [2], 0.183 µM; in test [3] it was 1.3 µM; in test [4] it was 1.36 µM; in test [5], 0.0359 µM; in test [6] it was 1.15 µM. In addition, the GI50 in test [7] is 1.66 µM; in [8] it was 1.26 µM; in [9] it was 1.49 µM; in [10], 0.543 µM. Also, the TGI came out at 3.44 µM in test [1]; 3.34 µM in test [2]; 3.43 µM in test [3]; 3.15 µM in test [4]; 2.07 µM in test [5]; 2.6 µM in test [6]. For the same molecule, the TGI in test [7] turned out to be 4.46 µM; in [8] it was 2.88 µM; in test [9], 3.02 µM; in [10], 3.67 µM.

Turning to `CCN1CCN(c2cc(C)nc(NCc3cc(Nc4ccnc5cc(Cl)ccc45)ccc3F)n2)CC1`, the GI50 is 4.09 µM in test [1]; 2.94 µM in [2]; 2.08 µM in [3]; 2.53 µM in [4]; 2.74 µM in test [5]; 2.82 µM in test [6]. Moreover, the GI50 in test [7] was 3.71 µM; in test [8], 1.74 µM; in test [9], 2.05 µM; in test [10], 5.02 µM. The TGI in test [1] was 40 µM; in test [2], 11.8 µM; in [3], above 100 µM; in test [4], 6.52 µM; in test [5], 42.3 µM; in test [6], 17.1 µM. The TGI in test [7] is above 100 µM; in test [8] it was 3.6 µM; in [9], 5.96 µM; in test [10], 69.5 µM.

With `O=C(O)CCc1nc(-c2ccccc2)c(-c2ccccc2)o1`, the TGI in test [2], in test [3], in test [4], in test [5], in test [6] and in [7] was above 100 µM throughout. Further, the TGI in [8], in test [9] and in test [10] was above 100 µM throughout.

Turning to `COc1cc2c(cc1-c1c(C)noc1C)ncc1[nH]c(=O)n([C@H](C)c3ccccn3)c12`, the GI50 was 11.7 µM in test [1]; 1.05 µM in test [2]; 1.94 µM in [3]; 6.07 µM in test [4]; 17.3 µM in test [5]; 0.0939 µM in test [6]. For the same molecule, the GI50 in test [7] is 1.16 µM; in test [8] it was 0.352 µM; in test [9] it was 0.649 µM; in test [10], 2.72 µM. Further, the TGI in test [1] is above 100 µM; in test [2], above 47.9 µM; in test [3] it was above 100 µM; in test [4], 77.6 µM; in [5], above 100 µM; in test [6], above 100 µM. In addition, the TGI is above 100 µM in test [7], 20.3 µM in [8], 57.4 µM in test [9] and above 100 µM in test [10].

As for `CN(C)CCC(=O)NCc1c2nc3ccccc3nc2n2ccccc12`, the GI50 was 41.5 µM in test [1]; above 100 µM in test [2]; 48.1 µM in test [4]; 12.3 µM in test [5]; 60.6 µM in [6]; 52.9 µM in [7]. Further, the GI50 was 21 µM in test [8], 61.1 µM in test [9] and 33.5 µM in test [10]. Moreover, the TGI in test [1], in test [2], in [4], in test [5], in [6] and in test [7] was above 100 µM throughout. For the same molecule, the figures for the TGI in test [8], in [9] and in test [10] were 40.4 µM, above 100 µM and above 100 µM, respectively.

(Values after PubChem BioAssay (NCI).)
